Measured values taken from US20100305113A1, “Substituted Imidazopyridazines as Lipid Kinase Inhibitors” (priority 2007, published 2010).
pIC50: −log10 of the molar value.

What was measured:
Format in all cases: biochemical
Details in all cases: Enzymatic Data
PI3K beta = target: T1, PI3K beta (Homo sapiens, UniProt P42338); assay: PI3K beta enzymatic assay (Kinase-Glo luminescence)
T1 construct: for the full-length p110-b subunit are generated and fused by overlapping PCR; p85(iSH2) fusion partner (same polypeptide; see partner chain) (N); Gly linker (N); His tag (C); made in house; host or cells: baculovirus; Tn5 (Trichoplusia ni) or TiniPro insect cells
T1 sequence (P42338 with tags, fused parts or gaps limits assumed): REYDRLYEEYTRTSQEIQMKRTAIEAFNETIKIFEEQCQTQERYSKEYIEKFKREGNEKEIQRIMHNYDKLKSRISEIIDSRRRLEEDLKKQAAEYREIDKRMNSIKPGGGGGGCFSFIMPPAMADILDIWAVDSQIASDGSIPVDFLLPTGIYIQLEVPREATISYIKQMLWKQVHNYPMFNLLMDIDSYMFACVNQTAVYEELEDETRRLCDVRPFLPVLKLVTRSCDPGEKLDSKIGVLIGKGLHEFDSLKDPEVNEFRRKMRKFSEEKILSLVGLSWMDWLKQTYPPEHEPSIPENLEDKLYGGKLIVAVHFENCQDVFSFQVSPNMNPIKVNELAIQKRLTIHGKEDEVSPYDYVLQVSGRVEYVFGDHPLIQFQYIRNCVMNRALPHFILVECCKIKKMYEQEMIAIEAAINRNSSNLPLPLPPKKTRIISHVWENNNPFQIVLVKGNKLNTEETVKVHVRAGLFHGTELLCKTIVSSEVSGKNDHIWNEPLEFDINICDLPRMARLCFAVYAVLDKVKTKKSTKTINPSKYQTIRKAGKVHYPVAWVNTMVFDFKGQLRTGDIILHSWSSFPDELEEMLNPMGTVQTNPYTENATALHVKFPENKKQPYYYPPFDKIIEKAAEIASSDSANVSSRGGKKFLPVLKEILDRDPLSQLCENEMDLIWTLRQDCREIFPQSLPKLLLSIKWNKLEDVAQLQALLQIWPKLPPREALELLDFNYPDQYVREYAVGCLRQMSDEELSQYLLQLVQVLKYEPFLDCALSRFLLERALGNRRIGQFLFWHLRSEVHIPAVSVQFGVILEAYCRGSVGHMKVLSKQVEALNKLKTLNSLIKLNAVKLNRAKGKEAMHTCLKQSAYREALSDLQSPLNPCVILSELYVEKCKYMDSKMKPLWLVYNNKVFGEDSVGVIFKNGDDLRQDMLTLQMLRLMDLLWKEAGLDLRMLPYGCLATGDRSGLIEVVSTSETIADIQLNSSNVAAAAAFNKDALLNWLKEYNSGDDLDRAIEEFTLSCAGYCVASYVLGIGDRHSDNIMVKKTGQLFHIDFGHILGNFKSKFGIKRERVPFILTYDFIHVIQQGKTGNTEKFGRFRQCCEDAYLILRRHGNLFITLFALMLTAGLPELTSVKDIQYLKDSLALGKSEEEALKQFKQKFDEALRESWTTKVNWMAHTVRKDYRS
Experimental: (§1) In a more preferred assay, the kinase reaction is performed in a final volume of 10 μL per well of a low volume non binding CORNING, 384 well black plate (Cat. No. #3676). The final concentrations of ATP and phosphatidyl inositol (PI) in the assay are 1 μM and 10 μg/mL respectively. The reaction is started by the addition of ATP.
(§2) The components of the assay are added per well as follows:
(§3) 50 nL test compounds in 90% DMSO per well, in columns 1-20, 8 concentrations (⅓ and 1/3.33 serial dilution step) in single. • Low control: 50 nL of 90% DMSO in half the wells of columns 23-24 (0.45% in final). • High control: 50 nL of reference compound (e.g. compound of Example 7 in WO 2006/122806, incorporated by reference herein that regard) in the other half of columns 23-24 (2.5 μM in final). • Standard: 50 nL of reference compound as just mentioned diluted as the test compounds in columns 21-22 • 20 mL ‘buffer’ are prepared per assay: • 200 μL of 1M TRIS HCl pH7.5 (10 mM in final) • 60 μL of 1M MgCl2 (3 mM in final) • 500 μL of 2M NaCl (50 mM in final) • 100 μL of 10% CHAPS (0.05% in final) • 200 μL of 100 mM DTT (1 mM in final) • 18.94 mL of nanopure water • 10 mL ‘PI’ are prepared per assay: • 200 μL of 1 mg/ml L-alpha-Phosphatidylinositol (Liver Bovine, Avanti Polar Lipids Cat. No. 840042C MW=909.12) prepared in 3% OctylGlucoside ([…]) • 9.8 mL of ‘buffer’ • 10 mL ‘ATP’ are prepared per assay: • 6.7 μL of 3 mM stock of ATP giving a final concentration of 1 μM per well • 10 mL of ‘buffer’ • 2.5 mL of each PI3K construct are prepared per assay in ‘PI’ with the following final concentration: • 10 nM PI3K alfa BV-1075 • 25 nM beta BV-949 • 10 nM delta BV-1060 • 150 nM gamma BV-950 • 5 μL of ‘PI/PI3K’ are added per well. • 5 μl ‘ATP’ are added per well to start the reaction. • The plates are then incubated at room temperature for 60 minutes (alfa, beta, delta) or 120 minutes (gamma). • The reaction is terminated by the addition of 10 μL Kinase-Glo (Promega Cat. No. #6714). • The assay plates are read after 10 minutes in Synergy 2 reader (BioTek, Vermont USA) with an integration time of 100 milliseconds and sensitivity set to 191. • Output: The High control is around 60′000 counts and the Low control is 30′000 or lower • This luminescence assay gives a useful Z′ ratio between 0.4 and 0.7 The Z′ value is a universal measurement of the robustness of an assay. A Z′ between 0.5 and 1.0 is considered an excellent assay.
PI3Kβ BV-949 p85(iSH2)-Gly linker-p110b (Full-Length)-C-Term His Tag
(§4) IC50 is determined by a four parameter curve fitting routine that comes aloneg with “excel fit”. A 4 Parameter logistic equation is used to calculate IC50 values (IDBS XLfit) of the percentage inhibition of each compound at 8 concentrations (usually 10, 3.0, 1.0, 0.3, 0.1, 0.030, 0.010 and 0.003 μM). Alternatively, IC50 values are calculated using idbsXLfit model 204, which is a 4 parameter logistic model.

PI3K alfa = target: T2, PI3K alfa (Homo sapiens, UniProt P42336); assay: PI3K alfa enzymatic assay (Kinase-Glo luminescence)
T2 construct: p85(iSH2) fusion partner (same polypeptide; see partner chain) (N); 12x Gly linker (N); His tag (C); made in house; host or cells: baculovirus; Tn5 (Trichoplusia ni) or TiniPro insect cells
T2 sequence (P42336 with tags, fused parts or gaps limits assumed): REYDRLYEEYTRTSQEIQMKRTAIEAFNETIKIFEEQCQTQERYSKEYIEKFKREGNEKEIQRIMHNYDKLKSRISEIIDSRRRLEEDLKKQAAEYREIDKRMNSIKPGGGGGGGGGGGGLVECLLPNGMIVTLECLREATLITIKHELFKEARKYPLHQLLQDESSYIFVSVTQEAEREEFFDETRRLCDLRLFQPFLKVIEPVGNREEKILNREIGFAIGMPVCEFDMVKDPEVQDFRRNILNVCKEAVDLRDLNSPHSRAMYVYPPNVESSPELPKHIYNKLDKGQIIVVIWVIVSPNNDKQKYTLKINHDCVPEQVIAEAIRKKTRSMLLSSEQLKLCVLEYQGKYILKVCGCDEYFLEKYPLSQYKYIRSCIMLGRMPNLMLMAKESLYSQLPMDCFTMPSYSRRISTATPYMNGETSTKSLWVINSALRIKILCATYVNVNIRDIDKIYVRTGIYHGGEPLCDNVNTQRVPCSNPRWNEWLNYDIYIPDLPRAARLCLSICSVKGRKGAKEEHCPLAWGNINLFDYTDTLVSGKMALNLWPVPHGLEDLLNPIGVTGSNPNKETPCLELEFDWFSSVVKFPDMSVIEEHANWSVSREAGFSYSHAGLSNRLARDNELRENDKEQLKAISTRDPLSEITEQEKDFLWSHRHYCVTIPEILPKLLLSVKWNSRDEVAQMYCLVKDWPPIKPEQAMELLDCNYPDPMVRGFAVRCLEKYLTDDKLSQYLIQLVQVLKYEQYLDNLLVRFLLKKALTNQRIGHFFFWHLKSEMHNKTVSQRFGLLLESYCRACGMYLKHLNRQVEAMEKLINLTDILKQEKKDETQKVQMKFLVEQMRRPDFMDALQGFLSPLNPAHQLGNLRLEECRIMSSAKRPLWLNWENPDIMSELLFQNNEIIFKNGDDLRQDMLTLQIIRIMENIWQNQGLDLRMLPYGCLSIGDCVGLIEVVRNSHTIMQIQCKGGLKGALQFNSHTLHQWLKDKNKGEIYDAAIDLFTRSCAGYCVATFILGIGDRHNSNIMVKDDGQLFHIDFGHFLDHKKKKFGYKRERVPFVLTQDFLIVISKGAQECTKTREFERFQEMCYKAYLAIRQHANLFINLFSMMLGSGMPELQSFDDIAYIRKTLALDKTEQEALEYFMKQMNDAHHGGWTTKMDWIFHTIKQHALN
Experimental: as §1, §2, §3, §4

PI3K gamma = target: T3, PI3K gamma (Homo sapiens, UniProt P48736); assay: PI3K gamma enzymatic assay (Kinase-Glo luminescence)
T3 construct: His tag (C); made in house; host or cells: construct from Roger Williams lab (MRC LMB); baculovirus (pVL1393); Tn5 (Trichoplusia ni) or TiniPro insect cells
T3 sequence (P48736 144-1102 limits assumed): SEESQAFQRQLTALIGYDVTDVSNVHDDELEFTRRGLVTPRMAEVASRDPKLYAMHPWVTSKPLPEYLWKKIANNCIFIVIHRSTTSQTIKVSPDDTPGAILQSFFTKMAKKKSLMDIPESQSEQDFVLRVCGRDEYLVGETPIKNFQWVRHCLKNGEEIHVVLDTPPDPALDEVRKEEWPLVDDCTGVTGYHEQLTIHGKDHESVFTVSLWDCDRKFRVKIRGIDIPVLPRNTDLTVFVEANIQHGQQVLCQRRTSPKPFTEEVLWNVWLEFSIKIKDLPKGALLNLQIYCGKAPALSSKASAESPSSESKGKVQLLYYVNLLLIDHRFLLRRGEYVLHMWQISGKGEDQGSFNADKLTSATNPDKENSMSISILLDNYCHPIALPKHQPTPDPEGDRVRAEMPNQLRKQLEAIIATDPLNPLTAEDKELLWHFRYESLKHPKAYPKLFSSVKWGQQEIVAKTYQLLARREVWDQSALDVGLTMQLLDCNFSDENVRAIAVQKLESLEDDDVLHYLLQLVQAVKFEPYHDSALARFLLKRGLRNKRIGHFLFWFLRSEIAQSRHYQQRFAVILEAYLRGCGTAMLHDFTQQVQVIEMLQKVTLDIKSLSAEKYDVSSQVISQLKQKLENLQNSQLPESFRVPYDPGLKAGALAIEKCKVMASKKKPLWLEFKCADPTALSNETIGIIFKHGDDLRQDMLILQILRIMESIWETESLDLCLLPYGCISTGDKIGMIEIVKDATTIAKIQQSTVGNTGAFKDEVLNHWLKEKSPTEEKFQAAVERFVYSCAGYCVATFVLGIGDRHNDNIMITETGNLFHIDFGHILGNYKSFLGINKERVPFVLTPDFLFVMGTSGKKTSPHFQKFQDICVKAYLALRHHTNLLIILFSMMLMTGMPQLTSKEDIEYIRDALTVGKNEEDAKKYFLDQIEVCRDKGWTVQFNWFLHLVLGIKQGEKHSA
Experimental: as §1, §2, §3, §4

PI3K delta = target: T4, PI3K delta (Homo sapiens, UniProt O00329); assay: PI3K delta enzymatic assay (Kinase-Glo luminescence)
T4 construct: for the full-length p110-d subunit are generated and fused by overlapping PCR; p85(iSH2) fusion partner (same polypeptide; see partner chain) (N); Gly linker (N); His tag (C); made in house; host or cells: baculovirus; Tn5 (Trichoplusia ni) or TiniPro insect cells
T4 sequence (O00329 with tags, fused parts or gaps limits assumed): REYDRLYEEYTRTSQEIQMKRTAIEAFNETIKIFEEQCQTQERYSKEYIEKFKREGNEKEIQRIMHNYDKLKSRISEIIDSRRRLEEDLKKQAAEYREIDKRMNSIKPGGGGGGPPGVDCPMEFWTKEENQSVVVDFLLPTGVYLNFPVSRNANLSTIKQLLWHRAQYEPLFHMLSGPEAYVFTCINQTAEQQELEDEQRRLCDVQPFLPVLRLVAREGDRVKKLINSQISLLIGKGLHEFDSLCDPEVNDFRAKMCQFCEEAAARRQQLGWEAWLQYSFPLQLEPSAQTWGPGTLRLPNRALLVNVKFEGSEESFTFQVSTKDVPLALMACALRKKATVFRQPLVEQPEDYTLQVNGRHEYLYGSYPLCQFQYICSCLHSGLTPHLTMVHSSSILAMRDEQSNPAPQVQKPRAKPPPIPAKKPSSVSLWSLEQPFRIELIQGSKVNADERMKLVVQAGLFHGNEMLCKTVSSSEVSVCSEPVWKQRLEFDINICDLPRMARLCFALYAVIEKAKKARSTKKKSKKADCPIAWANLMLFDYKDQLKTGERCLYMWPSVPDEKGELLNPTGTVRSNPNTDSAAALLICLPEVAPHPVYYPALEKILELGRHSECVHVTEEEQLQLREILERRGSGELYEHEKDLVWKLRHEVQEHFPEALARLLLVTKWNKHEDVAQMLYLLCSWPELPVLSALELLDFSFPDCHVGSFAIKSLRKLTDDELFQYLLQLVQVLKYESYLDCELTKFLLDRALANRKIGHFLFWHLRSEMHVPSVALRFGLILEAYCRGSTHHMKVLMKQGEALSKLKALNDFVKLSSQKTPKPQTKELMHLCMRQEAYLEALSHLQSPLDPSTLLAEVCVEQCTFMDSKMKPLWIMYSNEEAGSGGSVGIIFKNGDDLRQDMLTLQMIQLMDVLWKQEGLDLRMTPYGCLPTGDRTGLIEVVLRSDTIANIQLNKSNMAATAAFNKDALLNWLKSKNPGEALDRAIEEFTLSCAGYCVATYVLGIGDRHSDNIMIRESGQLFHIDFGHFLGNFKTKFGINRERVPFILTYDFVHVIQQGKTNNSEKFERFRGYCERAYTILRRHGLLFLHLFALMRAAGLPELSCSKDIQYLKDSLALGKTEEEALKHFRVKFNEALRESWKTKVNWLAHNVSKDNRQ
Experimental: as §1, §2, §3
PI3Kδ BV-1060 p85(iSH2)-Gly Linker-p110d (Full-Length)-C-term His Tact
as §4

SMILES	pIC50 (PI3K beta)	pIC50 (PI3K alfa)	pIC50 (PI3K gamma)	pIC50 (PI3K delta)
COc1cc(-c2ccc3nc(C)c(-c4cnc(N)c(C(F)(F)F)c4)n3n2)ccc1OCCNC(=O)Nc1cccc(C(F)(F)F)c1 [Example 93, 1-(2-{4-[3-(6-Amino-5-trifluoromethyl-pyridin-3-yl)-2-methyl-imidazo[1,2-b]pyridazin-6-yl]-2-methoxy-phenoxy}-ethyl)-3-(3-trifluoromethyl-phenyl)-urea]	< 5.04	5.63	5.48	5.38
COc1cc(-c2ccc3nc(C)c(-c4cnc(N)c(C(F)(F)F)c4)n3n2)ccc1OCCNC(=O)c1ccc(N2CCOCC2)cc1 [Example 94, N-(2-{4-[3-(6-Amino-5-trifluoromethyl-pyridin-3-yl)-2-methyl-imidazo[1,2-b]pyridazin-6-yl]-2-methoxy-phenoxy}-ethyl)-4-morpholin-4-yl-benzamide]	< 5.04	6.44	< 5.04	5.17
COc1cc(-c2ccc3nc(C)c(-c4cnc(N)c(C(F)(F)F)c4)n3n2)ccc1OCCNC(=O)c1ccc(OC)c(OC)c1OC [Example 95, N-(2-{4-[3-(6-Amino-5-trifluoromethyl-pyridin-3-yl)-2-methyl-imidazo[1,2-b]pyridazin-6-yl]-2-methoxy-phenoxy}-ethyl)-2,3,4-trimethoxy-benzamide]	< 5.04	6.61	5.32	5.27
COc1cc(-c2ccc3nc(C)c(-c4cnc(N)c(C(F)(F)F)c4)n3n2)ccc1OCCCN1CCNC1=O [Example 96, 1-(3-{4-[3-(6-Amino-5-trifluoromethyl-pyridin-3-yl)-2-methyl-imidazo[1,2-b]pyridazin-6-yl]-2-methoxy-phenoxy}-propyl)-imidazolidin-2-one]	5.31	7.51	6.09	6.37
COc1ccc(-c2ccc3nc(C)c(-c4cnc(N)c(C(F)(F)F)c4)n3n2)cc1OCCCNC(=O)c1ccncc1 [Example 97, N-(3-{5-[3-(6-Amino-5-trifluoromethyl-pyridin-3-yl)-2-methyl-imidazo[1,2-b]pyridazin-6-yl]-2-methoxy-phenoxy}-propyl)-isonicotinamide]	< 5.04	6.93	5.88	6.02
COc1cc(-c2ccc3nc(C)c(-c4cnc(N)c(C(F)(F)F)c4)n3n2)ccc1OCCN(CC(=O)N(C)C)CC(=O)N(C)C [Example 103, 2-[(2-{4-[3-(6-Amino-5-trifluoromethyl-pyridin-3-yl)-2-methyl-imidazol[1,2-b]pyridazin-6-yl]-2-methoxy-phenoxy}-ethyl)-dimethylcarbamoylmethyl-amino]-N,N-dimethyl-acetamide]	5.74	7.82	6.18	6.44
COc1cc(-c2ccc3nc(C)c(-c4cnc(N)c(C(F)(F)F)c4)n3n2)ccc1OCCN1CCNC1=O [Example 104, 1-(2-{4-[3-(6-Amino-5-trifluoromethyl-pyridin-3-yl)-2-methyl-imidazo[1,2-b]pyridazin-6-yl]-2-methoxy-phenoxy}-ethyl)-imidazolidin-2-one]	5.68	7.51	6.32	6.59
Cc1nc2ccc(-c3ccc(OCCCN4CCCC4=O)cc3)nn2c1-c1cnc(N)c(C(F)(F)F)c1 [Example 105, 1-(3-{4-[3-(6-Amino-5-trifluoromethyl-pyridin-3-yl)-2-methyl-imidazo[1,2-b]pyridazin-6-yl]-phenoxy}-propyl)-pyrrolidin-2-one]	5.20	7.08	6.29	6.56
Cc1nc2ccc(-c3ccc4c(c3)OCO4)nn2c1-c1cnc(N)c(C(F)(F)F)c1 [Example 108, 5-(6-Benzo[1,3]dioxol-5-yl-2-methyl-imidazo[1,2-b]pyridazin-3-yl)-3-trifluoromethyl-pyridin-2-ylamine]	5.15	6.01	5.17	5.64

The remaining lines, values ahead:

pIC50 (PI3K beta)	pIC50 (PI3K alfa)	pIC50 (PI3K gamma)	pIC50 (PI3K delta)	SMILES
< 5.04	5.75	< 5.04	< 5.04	COc1cc(-c2ccc3nc(C)c(-c4cnc(N)c(C(F)(F)F)c4)n3n2)ccc1OC1CCN(C(=O)OC(C)(C)C)CC1 [Example 92, 4-{4-[3-(6-Amino-5-trifluoromethyl-pyridin-3-yl)-2-methyl-imidazo[1,2-b]pyridazin-6-yl]-2-methoxy-phenoxy}-piperidine-1-carboxylic acid tert-butyl ester]
< 5.04	5.04	< 5.04	< 5.04	COc1cc(-c2ccc3nc(C)c(-c4ccc(S(C)(=O)=O)cc4)n3n2)ccc1OC1CCN(C(=O)OC(C)(C)C)CC1 [Example 98, 4-{4-[3-(4-Methanesulfonyl-phenyl)-2-methyl-imidazo[1,2-b]pyridazin-6-yl]-2-methoxy-phenoxy}-piperidine-1-carboxylic acid tert-butyl ester]
< 5.04	< 5.04	< 5.04	< 5.04	CCS(=O)(=O)c1ccc(-c2c(C)nc3ccc(-c4ccc(OC5CCN(C(=O)OC(C)(C)C)CC5)c(OC)c4)nn23)cc1 [Example 99, 4-{4-[3-(4-Ethanesulfonyl-phenyl)-2-methyl-imidazo[1,2-b]pyridazin-6-yl]-2-methoxy-phenoxy}-piperidine-1-carboxylic acid tert-butyl ester]
< 5.04	5.98	< 5.04	5.93	COc1cc(-c2ccc3nc(C)c(-c4ccc(S(C)(=O)=O)cc4)n3n2)ccc1OC1CCNCC1 [Example 101, 3-(4-Methanesulfonyl-phenyl)-6-[3-methoxy-4-(piperidin-4-yloxy)-phenyl]-2-methyl-imidazo[1,2-b]pyridazine]
< 5.04	5.52	< 5.04	5.59	CCS(=O)(=O)c1ccc(-c2c(C)nc3ccc(-c4ccc(OC5CCNCC5)c(OC)c4)nn23)cc1 [Example 102, 3-(4-Ethanesulfonyl-phenyl)-6-[3-methoxy-4-(piperidin-4-yloxy)-phenyl]-2-methyl-imidazo[1,2-b]pyridazine]
< 5.04	5.66	5.98	5.98	Cc1nc2ccc(-c3ccc(OCCCN4CCCC4=O)cc3)nn2c1-c1ccc(S(C)(=O)=O)cc1 [Example 106, 1-(3-{4-[3-(4-Methanesulfonyl-phenyl)-2-methyl-imidazo[1,2-b]pyridazin-6-yl]-phenoxy}-propyl)-pyrrolidin-2-one]
< 5.04	5.33	< 5.04	5.52	CCS(=O)(=O)c1ccc(-c2c(C)nc3ccc(-c4ccc(OCCCN5CCCC5=O)cc4)nn23)cc1 [Example 107, 1-(3-{4-[3-(4-Ethanesulfonyl-phenyl)-2-methyl-imidazo[1,2-b]pyridazin-6-yl]-phenoxy}-propyl)-pyrrolidin-2-one]
